Consider one compound from article PMC13401508 (Pharmacological research, 2026).

One data set deals with PDGFRα. As to the kind of experiment: Western blot, PDGF-AA activated HS5 cells: PDGFRα. The conditions noted are these: PDGF-AA 10 ng/ML, 25 μM, 24 hrs. The class given is cell-based, human.
In a further data set the test system is RM1-BM-Luc cells. The data set can be described thus: Combination and survival study, RM1-BM-Luc syngeneic model. Format: in vivo, C57BL/6 mice. The conditions noted are these: RM1-BM-Luc in C57BL/6, day 14, IVMT-Rx-4 30 mg/kg and/or Docetaxel 5 mg/kg 3X a week for two weeks. Here is the method:
(§1) Both syngeneic (C57BL/6) and athymic nude mice were used for survival studies. Tumor cells (RM1-BM-Luc or PC3-ML-Luc) were injected intracardially in a cohort of 40 animals. […] In the combination groups, both regimens were administered 3X a week for two-weeks at the same dose as a single therapy. Animals were imaged periodically and maintained until euthanization was required.
(§2) Fig. 5. […] A and B) RM1-BM-Luc (A) or PC3-ML-Luc (B) cells were implanted I.C. in C57BL/6 and athymic nude mice, respectively. […] BLI images were used to detect bone metastases (the percentage incidence of bone metastases in animals was calculated at a single time point, day 14). Values are presented at the bottom panel of the respective group (red, number of animals positive for metastasis and black, total number of experimental animals). C and D) Animals were kept until mandated euthanasia based on IACUC guidelines, considered as disease associated death. The Kaplan–Meier survival curves were generated using GraphPad in both models as described in (A) and (B), respectively. E and F) Log-rank test was performed and values between different experimental groups are presented.

Another data set concerns CXCL5. As to the kind of experiment: CXCL5 mRNA by qRT-PCR in HS5 cells. The class given is cell-based, human. The conditions noted are these: PDGF-AA activated HS5 cells, 24 hrs. Here is the method:
Total RNA was extracted from cells using miRNeasy kits (Qiagen), and cDNA was prepared as described previously. Gene specific TaqMan Probes were obtained from Applied Bio system, Thermo-Fisher, USA. qRT-PCR was performed using an ABI Quant Studio real-time PCR.
Fig. 3. […] CXCL5 mRNA expression was measured by qRT-PCR. […] Secreted CXCL5 in CM was measured by ELISA (n = 3 ± SD; * p < 0.05). […] CXCL5 mRNA expression was measured by qRT-PCR (n = 3 ± SD; * p < 0.05).
On the technique in general: In qPCR the cycle at which signal appears reflects the starting amount.

A short description of data set [1]: Dynamic vapor sorption (DVS). The class given is physicochemical. The conditions noted are these: for moisture adsorption: 25°C. Here is the method:
Hygroscopicity and moisture absorption of IVMT-Rx-4 were assessed using dynamic vapor sorption on a DVS instrument (SMS, DVS Intrinsic). Samples 20.4 mg in size were first treated at 25°C for several hours while under nitrogen flow. They were then treated with water vapor at various partial pressures with relative humidities which ranged from 0 to 90% at 25°C.

The next data set concerns YAP. The data set can be described thus: Western blot, PDGF-AA activated HS5 cells: YAP. The conditions noted are these: PDGF-AA 10 ng/ML, 25 μM, 24 hrs. Format: cell-based, human. On the technique in general: A western blot detects proteins with antibodies after separation by electrophoresis.
Another data set deals with T1, PXR (Homo sapiens, UniProt O75469).
T1 construct: expressed in transfected cells; host or cells: DPX2 cells
T1 sequence (O75469 1-434): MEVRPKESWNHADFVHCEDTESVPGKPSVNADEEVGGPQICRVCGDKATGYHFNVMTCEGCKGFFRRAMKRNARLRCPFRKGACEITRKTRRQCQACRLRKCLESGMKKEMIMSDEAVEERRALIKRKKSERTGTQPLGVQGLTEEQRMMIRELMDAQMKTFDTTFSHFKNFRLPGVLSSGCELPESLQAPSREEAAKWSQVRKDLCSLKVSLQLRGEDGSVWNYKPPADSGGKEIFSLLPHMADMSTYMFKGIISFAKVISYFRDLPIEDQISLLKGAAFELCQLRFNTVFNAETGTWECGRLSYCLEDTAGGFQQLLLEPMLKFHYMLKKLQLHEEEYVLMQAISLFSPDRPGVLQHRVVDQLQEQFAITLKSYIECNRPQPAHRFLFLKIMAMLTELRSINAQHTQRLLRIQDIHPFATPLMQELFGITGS
The data set can be described thus: PXR assay using DPX2 cells. Format: cell-based. How it is done: DPX2 cells were initially cultured in T-75 flasks and maintained at 37°C in a humidified incubator with 5% CO2 and 95% relative humidity. Cells were allowed to reach 70-80% confluence prior to subculture. Next, cells were transferred to a culture plate and incubated for an additional 24 hours to allow for attachment and recovery prior to treatment. […] Cell viability and luciferase activity were measured using the CellTiter-Fluor™ Cell Viability Assay and One-GloTM Luciferase Assay System, respectively. Luciferase activity was normalized to viable number and fold activation of PXR was calculated using the following equation: […]

Data set [2] relates to HS5, RWPE-1, C4–2B, PC3-ML, ARCaP-M and RM1-BM cells. As to the kind of experiment: Colony formation (clonal) assay. The class given is cell-based, human and murine. The conditions noted are these: 50 μM, six repeated doses over a two-week period, tumor and non-tumor cells. How it is done:
200 cells/well were seeded in triplicate in 6-well plates. […] The colonies were fixed with ice-cold Methanol and stained with 0.5% crystal violet and counted.
Fig. 1. Primary characterization of IVMT-Rx-4. A) Chemical structure (upper panel) and synthesis scheme (lower panel). […] All proteins were extracted, and Western blotting was performed immediately after heating. Quantifications were obtained in the absence (control) or presence of IVMT-Rx-4 and values are presented as percentage of RT (room temperature) normalized for the experimental groups (control, IVMT-Rx-4). SOD (Superoxide dismutase) was used as an endogenous control. […] Colonies were stained with crystal violet and counted (n = 3 ± SD; ns: non-significant). […] Invaded cells were stained with crystal violet. Top panel: representative photograph of invaded cells under different experimental settings. Bottom panel: graphical representation of number of invaded cells/field for different cell lines (n = 3 ± SD; * p < 0.05).

The next data set addresses T2, CYP2E1 (Homo sapiens, UniProt P05181).
T2 construct: in the presence of human liver microsomes; from tissue; host or cells: human liver microsomes
As to the kind of experiment: Drug-substrate based CYP inhibition, 2E1. Format: in vitro ADME. The conditions noted are these: human liver microsomes. How it is done:
IVMT-Rx-4 was incubated with selective probe substrates of each CYP isoform in the presence of human liver microsomes. The formation of metabolite was quantified using LC-MS/MS methods. The extent of inhibition was assessed by calculating the remaining enzyme activity and percent inhibition based on analyte-to-internal standard area ratios, using the following equations:
Area Ratio = Peak AreaAnalyte / Peak AreaInternal Standard
Remaining Activity (%) = Area Ratiotest compound / Area Ratiovehicle ×100
Inhibition (%) = 100 ̶ Remaining Activity (%)
A general note: Liver microsomes are vesicles of endoplasmic reticulum, rich in cytochrome P450 enzymes.

The next data set deals with PC3-ML-Luc cells. As to the kind of experiment: Combination and survival study, PC3-ML-Luc model. The class given is in vivo. The conditions noted are these: PC3-ML-Luc in athymic nude mice, day 14, IVMT-Rx-4 30 mg/kg and/or Docetaxel 5 mg/kg 3X a week for two weeks. Here is the method:
as §1, §2

For another data set, the system named is MST. As to the kind of experiment: Western blot, PDGF-AA activated HS5 cells: MST. The class given is cell-based, human. The conditions noted are these: PDGF-AA 10 ng/ML, 25 μM, 24 hrs.

Each structure is given as a SMILES string.

T2 sequence (P05181 whole entry): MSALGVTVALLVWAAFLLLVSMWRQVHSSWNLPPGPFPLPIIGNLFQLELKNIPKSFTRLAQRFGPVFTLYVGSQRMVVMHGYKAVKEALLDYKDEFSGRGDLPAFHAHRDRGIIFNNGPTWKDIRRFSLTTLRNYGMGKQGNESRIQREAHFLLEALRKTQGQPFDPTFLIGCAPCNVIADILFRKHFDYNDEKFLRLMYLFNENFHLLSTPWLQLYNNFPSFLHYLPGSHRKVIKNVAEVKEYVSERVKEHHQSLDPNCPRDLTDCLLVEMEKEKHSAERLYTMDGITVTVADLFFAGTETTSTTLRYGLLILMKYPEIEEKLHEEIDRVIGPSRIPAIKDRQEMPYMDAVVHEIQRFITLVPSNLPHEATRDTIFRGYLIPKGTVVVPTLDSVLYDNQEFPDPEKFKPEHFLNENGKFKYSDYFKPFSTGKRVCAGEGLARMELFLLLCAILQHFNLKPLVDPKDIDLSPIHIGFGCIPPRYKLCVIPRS

By IC50 is commonly meant the concentration at which inhibition is half-maximal. With `Cc1cc(NC(=O)CCc2nnc(-c3ccccc3)o2)c(C)cc1N` [IVMT-Rx-4], in the data set on PDGFRα, the “PDGFRα activation (phosphorylated PDGFRα)” value is given as “downregulation of phosphorylated PDGFRα”. The “bone metastases, Incident/Total number tested” value in the data set on RM1-BM-Luc cells is given as 3/8; in the data set with PC3-ML-Luc cells it was 1/8. In the data set on CXCL5, the “CXCL5 mRNA level” value was “significantly decreased”. In addition, the moisture adsorption in data set [1] (80% RH) came to 0.98%; in data set [1] (90% RH), 1.06%. The hygroscopicity entry in [1] (DVS) is reported as “slightly hygroscopic”. Besides, in the data set on YAP, the “phosphorylation of YAP at ser127” value is “promoted”. Besides, the PXR assay result on PXR is recorded as “No induction”. Further, in data set [2], the “cell proliferation (colony formation)” value is given as “did not inhibit cell proliferation”. Moreover, the IC50 on CYP2E1 was about 8 µM. For the same compound, the “phosphorylation of MST” value with MST was “promoted the phosphorylation of MST”.
